Assays:
MAFbx = MAFbx expression in gastrocnemius of rats infused with dexamethasone with or without testosterone (qPCR); assay type: in vivo; conditions: rat, dexamethasone plus testosterone 28 mg/kg/day, 7 days
Protocol: Muscle was flash frozen on dry ice after excision. Total RNA was isolated by phenol:chloroform extraction (Chomczynski and Sacchi, Anal Biochem 162: 156-159, 1987) and further enriched using RNAeasy minicolumns (Qiagen) with digestion on the column with RNAse-free DNAse (Qiagen).
RNA was quantified by absorbance at 260 nm. One microgram of total RNA was used to prepare cDNA libraries using the High Capacity cDNA Archive Kit (Applied Biosystems, Foster City, Calif.). Libraries were diluted 25-fold with water. Real time PCR was performed using Taqman 2×PCR buffer (Applied Biosystems) and an Applied Biosystems 7500 thermocycler. Data were normalized relative to that for 18S RNA. Relative changes in expression were determined using the 2^−ΔΔCt method. Taqman Assay on Demand probes (Applied Biosystems) were used for all assays except rat 18S RNA, which was quantified using the following […]: Forward: […] (SEQ ID NO:15); Reverse: […] (SEQ ID NO:16); Probe: FAM-[…] (SEQ ID NO:17; Labeled with FAM and non-fluoresent quencher, NFQ, at 5′ and 3′ ends, repsectively).
Male Wistar rats weighing 250 gm were anesthetized with ketamine/xylazine followed by implantation Alzet miniosmotic pumps administering vehicle (propylene glycocol), dexamethasone (0.7 mg/kg/day), or dexamethasone plus testosterone (28 mg/kg/day). […]

MAFbx mRNA = MAFbx mRNA levels in AR6 / C2C12.AR cells (qPCR); assay type: cell-based, mouse; conditions: dexamethasone with concurrent testosterone
Protocol: (A) Rats were administered test agents as indicated in the figure for 7-days, at which time animals were sacrificed and MAFbx expression was determined in gastrocnemius muscles by qPCR. Data are mean values±SEM for at least 8 animals. * p<0.05 vs vehicle, t-test. (B) AR6 cells were seeded into 6-well plates and incubated overnight in growth medium. Medium was replaced with DMEM containing 2% horse serum followed by incubation for an additional 48 hours. Hormones or vehicle (EtOH) were added to the medium and cells were incubated overnight, at which time MAFbx mRNA levels were determined by qPCR and expressed as fold-induction versus levels in cells incubated with EtOH. Data are mean values±SEM for three determinations each performed in triplicate. * p<0.05 vs. EtOH (ANOVA). (C) Effect of testosterone on MAFbx mRNA half-life. C2C12.AR cells were incubated overnight in growth medium supplemented with testosterone or vehicle (EtOH). […] Levels of MAFbx mRNA are expressed as a percentage of those at time zero. […]
RNA was quantified by absorbance at 260 nm. […] Relative changes in expression were determined using the 2^−ΔΔCt method. Taqman Assay on Demand probes (Applied Biosystems) were used for all assays except rat 18S RNA, which was quantified using the following Assay on Demand Probes: Forward: […] […]

human MAFbx promoter = assay: Human MAFbx promoter luciferase reporter assay in C2C12 / C2C12.AR cells; assay type: cell-based
Source text: The reporter genes pMAF3.1, pMAF2.4, pMAF948, pMAF400, and pMAF400-241 express firefly luciferase under the control of promoter regions of the human MAFbx gene and are described in Example 1. The rARC562G vector, encoding rat AR with a C562->G mutation in the first zinc binding module that disrupts binding of AR to DNA was described by Palvimo et al. (Mol Endocrinol 7: 1399-1407, 1993) pAR.4RKM (expressing AR with 4 R/K->M mutations in the nuclear localization sequence that is unable to enter the nucleus) and pAR.ABC (lacking the ligand binding domain) were described by Zhou et al. (J Biol Chem 269: 13115-13123, 1994). The pBabe.puro retroviral backbone described by Morgenstern and Land (Nucleic Acids Res 18: 3587-3596, 1990) was modified by introduction of a Not1 site. The ARE reporter gene expressing firefly luciferase under control of the MMTV hormone response element, and pSP72hAR-1, containing an insert of the full-length cDNA clone of the human AR, were provided by Dr. Diane Robins (University of Michigan). pRL-CMV expressing Renilla luciferase was from Promega (Madison, Wis.).
C2C12 cells (American Type Culture Collection, Manassas, Va.) were maintained in Dulbeco's modified Eagle's Medium (DMEM) containing 10% fetal bovine serum (FBS) and penicillin (100 U/ml)/streptomycin (100 μg/ml) (growth medium). Cells were incubated at 37° C. in humidified air containing 10% CO2. 293T cells (American Type Culture Collection) were maintained in growth medium as above. Transfection was achieved using Lipofectamine-Plus (Invitrogen, Carlsbad, Calif.) using 200 ng total DNA per well.
Cells were seeded into wells of 24-well plates (5×10^5 cells/well) then maintained overnight in DMEM with 10% CDS-FBS. Cells were co-transfected with the various reporter genes and pRL-CMV. Cells were incubated in the transfection mixture overnight, then covered with DMEM supplemented with 10% charcoal-dextran-stripped FBS (CDS-FBS) and either ethanol (EtOH) or hormones dissolved in EtOH. Cells were maintained for an additional 24 hours, at which time both firefly and renilla luciferase activity were determined using the Dual Luciferase Assay (Promega, Madison, Wis.) and a Berthold 96-well plate luminometer. Firefly luciferase activities were normalized relative to renilla luciferase. Ethanol concentrations were less than 0.1%.

SMILES: C[C@]12CC[C@H]3[C@@H](CCC4=CC(=O)CC[C@@]43C)[C@@H]1CC[C@@H]2O [testosterone]
- effects of dexamethasone on MAFbx expression in gastrocnemius (MAFbx): completely blocked
- MAFbx mRNA level versus cells exposed to ethanol only (MAFbx mRNA): not significantly different
- repression of pMAF3.1 reporter activity (human MAFbx promoter; C2C12.AR cells, 5 nM testosterone): about 40%
- suppression of MAFbx reporter with 3′ deletion of 208 bases encoding the 5′ UTR (human MAFbx promoter; C2C12.AR cells, 500 nM): abolished suppression
- repression of pMAF3.1 reporter activity (human MAFbx promoter; C2C12.AR cells, 500 nM testosterone): greater than 50%
- repression of 5′ truncated MAFbx reporters (human MAFbx promoter; C2C12.AR cells, 500 nM, three 5′ truncations including pMAF400): apparent
- dexamethasone induced luciferase expression (pMAF3.1) (human MAFbx promoter; C2C12.AR cells, testosterone 5 nM): partially inhibited
- dexamethasone induced luciferase expression (pMAF3.1) (human MAFbx promoter; C2C12.AR cells, testosterone 50 nM): full suppression
- dexamethasone induced luciferase expression (pMAF3.1) (human MAFbx promoter; C2C12.AR cells, testosterone 500 nM): suppressed below that of untreated cells
- suppression of reporter under control of 3.1 of the MAFbx upstream promoter (human MAFbx promoter; C2C12 muscle cells, 500 nM): 40%
- expression of MAFbx reporter (general statement) (human MAFbx promoter; cells transduced with the MAFbx reporter construct): decreased
- effect on activity of pMAF3.1 reporter (human MAFbx promoter; wild-type C2C12 cells, 5 to 500 nM): no effect
- repression of pMAF3.1 reporter (human MAFbx promoter; wild-type C2C12 co-transfected with AR defective in nuclear entry (4RKM), 500 nM): No repression
- repression of pMAF3.1 reporter (human MAFbx promoter; wild-type C2C12 co-transfected with AR lacking ligand binding domain (ABC), 500 nM): absent
- repression of pMAF3.1 reporter (human MAFbx promoter; wild-type C2C12 co-transfected with DNA binding domain mutant AR (C562G), 500 nM): repression was observed
- pMAF3.1 reporter gene activity (human MAFbx promoter; wild-type C2C12 co-transfected with wild-type AR, 500 nM): significantly depressed

Source: patent publication US7429482B2, “Screening tools for discovery of novel anabolic agents” (United States of America as represented by the Department …, priority 2005, dated 2008)
